This is an account of results in paper PMC8780263, “Green by Design: Convergent Synthesis, Computational Analyses, and Activity Evaluation of New FXa Inhibitors Bearing Peptide Triazole Linking Units” (Pharmaceutics, 2021).

Read-outs that look alike come from different tables or passages of the source.

Data set [1] addresses FXa enzyme (Bos taurus, UniProt P00743). Put plainly: FXa in vitro inhibition assay (fluorometric SensoLyte Factor Xa Assay Kit). As to conditions: for inhibition at 100 µM: read-out: %Inhibition FXa, inhibition percentage at 100 μM; for %Inhibition FXa: inhibition percentage at 100 μM.
Protocol: The FXa inhibition capacities of the newly synthesized molecules were evaluated using the SensoLyte® 520 Factor Xa Assay Kit.
Data set [2] has as its system HEK293 cells. In words: Cell viability analysis, CCK-8 method, HEK293. In kind it is cell-based, human. Conditions: 48 h; 10 mM, 100 μM, 10 μM, 100 nM, 10 nM. As for the experimental part:
(§1) The human cell lines (HEK293 and HeLa) applied in the cell viability assays were purchased from ATCC (Manassas, VA, USA). HEK293 and HeLa cell lines were cultivated in Dulbecco’s modified Eagle medium, supplemented with 10% fetal bovine serum, 100 units/mL of penicillin and […] of streptomycin and kept at 37 °C in a humidified atmosphere containing 5% CO2. A 100-μL aliquot of adherent cells was used to seed 96-well cell culture plates at 25,000 cells/well and allowed to adhere for 16 h prior to compound addition. Cells were treated with each compound in DMEM containing 10% FBS for 48 h. Subsequently, 10 μL of Cell Counting Kit-8 reagent (CCK-8; Sigma-Aldrich, Merck KGaA, Darmstadt Germany) was added into each well and incubated for 4 h at 37 °C in a humidified atmosphere containing 5% CO2. The absorbance measurement detected the cell viability at 450 nm in a Synergy H1 microplate reader (Biotek Instruments, Winooski, VT, USA). All experiments were performed in triplicate.
(§2) Cell viability assays were performed with HeLa and HEK293 cells using the CCK-8 method. Compounds 8a, 8k, 8l and 8p were assayed with decreasing concentrations: 10 mM (1), 100 μM (2), 10 μM (3), 100 nM (4) and 10 nM (5) (Figure 6).
(§3) Figure 6 Effect of the selected compounds on cell viability using the CCK-8 assay in (A) HeLa and (B) HEK93 cell lines. Concentrations used were 10 mM (1), 100 μM (2), 10 μM (3), 100 nM (4), and 10 nM (5). The upper and lower lines define ± 2 SD limits from the average value of control wells treated only with the vehicle (DMSO 2%). All values are means ± SD (n = 3). SD: standard deviation.
A general note: Tetrazolium assays rely on reduction of a dye to a coloured formazan, in cell work by metabolically active cells.

In data set [3] the test system is HeLa cells. In words: Cell viability analysis, CCK-8 method, HeLa. Conditions: 48 h; 10 mM, 100 μM, 10 μM, 100 nM, 10 nM. In kind it is cell-based, human. As for the experimental part:
as §1, §2, §3

FXa enzyme, sequence (P00743 234-492 limits assumed): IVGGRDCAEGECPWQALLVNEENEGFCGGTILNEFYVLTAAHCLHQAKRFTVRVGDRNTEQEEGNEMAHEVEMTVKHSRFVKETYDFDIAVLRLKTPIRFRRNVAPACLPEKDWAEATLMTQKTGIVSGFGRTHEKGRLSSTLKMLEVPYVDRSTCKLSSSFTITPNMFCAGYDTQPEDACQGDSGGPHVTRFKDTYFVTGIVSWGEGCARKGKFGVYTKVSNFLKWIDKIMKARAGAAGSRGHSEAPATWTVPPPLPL
FXa enzyme, sequence (P00743 41-180 partner limits assumed): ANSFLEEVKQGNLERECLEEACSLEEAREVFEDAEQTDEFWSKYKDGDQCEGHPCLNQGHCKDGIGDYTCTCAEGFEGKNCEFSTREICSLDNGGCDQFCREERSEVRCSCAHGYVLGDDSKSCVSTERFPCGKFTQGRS

As a reminder, the IC50 is the point on the concentration scale where inhibition reaches its midpoint. Usually inhibition stands for the percentage by which the read-out fell short of the control. For the molecule `O=C(Cn1cc(-c2ccccc2)nn1)Nc1ccc(N2CCCCC2=O)c(F)c1` [Compound 8a], in data set [1], the midpoint of inhibition, the IC50, lay at 41.2 ± 1.2 µM and the inhibition at 100 µM is no less than 50%. In addition, the “cell mortality in HEK-293 cells (cell viability, CCK-8)” value (“cell mortality in HEK-293 cells” for short) in data set [2] is “did not show any cell mortality”. For the same molecule, the “toxicity in HeLa cells (cell viability, CCK-8)” value (shortened to “toxicity in HeLa cells”) in data set [3] is on record as “no signs of toxicity”.

A word on the melting point: it is the temperature of the solid-liquid transition. Regarding `CC(C)(C)OC(=O)N1CCN(c2ccc(NC(=O)Cn3cc(-c4ccccc4)nn3)cc2F)C(=O)C1` [Compound 8b], the melting point was 195 to 196 °C. Moreover, the inhibition at 100 µM in data set [1] turned out to be 24%.

`O=C(Cn1cc(-c2ccccc2)nn1)Nc1ccc(N2CCOCC2=O)c(F)c1` [Compound 8c] returned a melting point of 254 to 255 °C. Also, in data set [1], the inhibition at 100 µM worked out at 17%.

The molecule `O=C(Cn1cc(-c2ccccc2)nn1)Nc1ccc(N2CCSCC2=O)c(F)c1` [Compound 8d] returned a melting point of 276 to 277 °C. The inhibition at 100 µM in data set [1] came to 33%.

For `O=C(Cn1cc(-c2ccc(F)cc2)nn1)Nc1ccc(N2CCCCC2=O)c(F)c1` [Compound 8e], the inhibition at 100 µM in data set [1] worked out at 17%.

Regarding `CC(C)(C)OC(=O)N1CCN(c2ccc(NC(=O)Cn3cc(-c4ccc(F)cc4)nn3)cc2F)C(=O)C1` [Compound 8f], in data set [1], the “%Inhibition FXa” value is 44%.

The molecule `O=C(Cn1cc(-c2ccc(F)cc2)nn1)Nc1ccc(N2CCOCC2=O)c(F)c1` [Compound 8g] displayed a melting point of 273 to 274 °C. Further, the inhibition at 100 µM in data set [1] is 36%.

Molecule `O=C(Cn1cc(-c2ccc(F)cc2)nn1)Nc1ccc(N2CCSCC2=O)c(F)c1` [Compound 8h] showed a melting point of 266 to 267 °C. Moreover, the inhibition at 100 µM in data set [1] was determined as 25%.

On to `O=C(Cn1cc(-c2ccc(Cl)cc2)nn1)Nc1ccc(N2CCCCC2=O)c(F)c1` [Compound 8i], for which the melting point lay in the range of 302 to 303 °C. For the same molecule, the inhibition at 100 µM in data set [1] turned out to be 29%.

`CC(C)(C)OC(=O)N1CCN(c2ccc(NC(=O)Cn3cc(-c4ccc(Cl)cc4)nn3)cc2F)C(=O)C1` [Compound 8j]: in data set [1], the “%Inhibition FXa” value is 23%.

As to `O=C(Cn1cc(-c2ccc(Cl)cc2)nn1)Nc1ccc(N2CCOCC2=O)c(F)c1` [Compound 8k], in data set [1], half-maximal inhibition (IC50) required 76.2 ± 16.9 µM and the inhibition at 100 µM is no less than 50%. For the same molecule, in data set [2], the “cell mortality in HEK-293 cells” value was “did not show any cell mortality”. Besides, in data set [3], the “toxicity in HeLa cells” value is “no signs of toxicity”.

On to `O=C(Cn1cc(-c2ccc(Cl)cc2)nn1)Nc1ccc(N2CCSCC2=O)c(F)c1` [Compound 8l], for which, in data set [1], half-maximal inhibition (IC50) was put at 52.9 ± 5.5 µM and the inhibition at 100 µM was no less than 50%. Moreover, the “cell mortality in HEK-293 cells” value in data set [2] is given as “did not show any cell mortality”. Moreover, the “toxicity in HeLa cells” value in data set [3] is reported as “no signs of toxicity”.

On to `O=C(Cn1cc(-c2ccc(Br)cc2)nn1)Nc1ccc(N2CCCCC2=O)c(F)c1` [Compound 8m], for which the melting point is 300 to 301 °C. Moreover, the inhibition at 100 µM in data set [1] was 29%.

For the molecule `CC(C)(C)OC(=O)N1CCN(c2ccc(NC(=O)Cn3cc(-c4ccc(Br)cc4)nn3)cc2F)C(=O)C1` [Compound 8n], the “%Inhibition FXa” value in data set [1] came to 22%.

Molecule `O=C(Cn1cc(-c2ccc(Br)cc2)nn1)Nc1ccc(N2CCOCC2=O)c(F)c1` [Compound 8o] yielded a melting point of 302 to 303 °C. Besides, in data set [1], the inhibition at 100 µM amounted to 37%.

Regarding `O=C(Cn1cc(-c2ccc(Br)cc2)nn1)Nc1ccc(N2CCSCC2=O)c(F)c1` [Compound 8p], in data set [1], the midpoint of inhibition, the IC50, lay at 17.2 ± 0.8 µM and the inhibition at 100 µM was no less than 50%. In data set [2], the “cell mortality in HEK-293 cells” value was “did not show any cell mortality”. Moreover, the “toxicity in HeLa cells” value in data set [3] is reported as “no signs of toxicity”.

Consider `Cc1ccc(-c2cn(CC(=O)Nc3ccc(N4CCCCC4=O)c(F)c3)nn2)cc1` [Compound 8q], for which the melting point fell in the range of 301 to 302 °C. The inhibition at 100 µM in data set [1] is 21%.

Turning to `Cc1ccc(-c2cn(CC(=O)Nc3ccc(N4CCN(C(=O)OC(C)(C)C)CC4=O)c(F)c3)nn2)cc1` [Compound 8r], the melting point lay in the range of 204 to 205 °C. In addition, in data set [1], the inhibition at 100 µM worked out at 27%.

`Cc1ccc(-c2cn(CC(=O)Nc3ccc(N4CCOCC4=O)c(F)c3)nn2)cc1` [Compound 8s] showed a melting point of 282 to 283 °C. Further, the inhibition at 100 µM in data set [1] was 37%.

As for `Cc1ccc(-c2cn(CC(=O)Nc3ccc(N4CCSCC4=O)c(F)c3)nn2)cc1` [Compound 8t], the melting point lay in the range of 285 to 286 °C. For the same molecule, in data set [1], the inhibition at 100 µM was 31%.

In data set [1] (FXa, dilution series 1 nM to 100 μM, triplicates), `CCOC(=O)c1ccc(OC(=O)CCCCCN=C(N)N)cc1.CS(=O)(=O)O` [Gabexate mesylate, reference compound] came in with a 50% inhibitory concentration (IC50) of 0.34 ± 0.1 µM. Further, in data set [1], the “%Inhibition FXa” value worked out at 93%.
